From patent US7371764B2, “Quinolin-isoquinolin-and quinazolin-oxyalkylamides and their use as fungicides” (priority 2002, dated 2008) come the findings set out here.

The subject of data set [1] is Pythium ultimum. The experiment in a line: Pythium ultimum (Damping off) growth inhibition in potato dextrose broth, microtiter plate. The class given is cell-based. The settings on record: Globisporangium ultimum, 24° C., after 48 hours, read-out: control of fungal infection (inhibition of growth, determined photometrically).
Data set [2] concerns Septoria nodorum. The class given is in vivo. The conditions noted are these: 200 ppm.
The subject of data set [3] is Puccinia recondita f.sp. tritici. The class given is in vivo. The settings on record: 200 ppm.
Data set [4] has as its system Pyrenophora teres. The class given is in vivo. The settings on record: 200 ppm.

Where two headings read alike, the source gives them in different places.

As a reminder, the inhibition is the relative decrease from the control value, in per cent. The melting point is the temperature of the solid-liquid transition.

Consider `CCC(Oc1ccc2ncccc2c1)C(=O)NC(C)(C)C#CCO[Si](C)(C)C(C)(C)C` (centres unmarked) [50(1), 2-(6-quinolinyloxy)-N-(1-tert-butyldi-methylsilyloxy-4-methylpent-2-yn-4-yl)butyramide], for which the inhibition at 20 ppm in data set [1] was more than 60%. As to `CC#CC(C)(C)NC(=O)C(COC)Oc1ccc2ccncc2c1` (centres unmarked) [2(49), 2-(7-isoquinolinyloxy)-N-(2-methylpent-3-yn-2-yl)-3-methoxypropionamide], the melting point lay in the range of 155 to 156 °C. For the same compound, the inhibition at 20 ppm in data set [1] (potato dextrose broth) was more than 60%. `CCC(Oc1ccc2ncccc2c1)C(=O)NC(C)(C)C#CCOC` (centres unmarked) [12(1), 2-(6-quinolinyloxy)-N-(1-methoxy-4-methylpent-2-yn-4-yl)butyramide]: the inhibition at 20 ppm in data set [1] is more than 60%. As to `CCC(Oc1ccc2ncccc2c1)C(=O)NC(C)(C)C#CCO` (centres unmarked) [10(1), 2-(6-quinolinyloxy)-N-(1-hydroxy-4-methylpent-2-yn-4-yl) butyramide], in data set [2], the “control of fungal infection (preventive fungicidal activity)” value (“control of fungal infection” for short) is given as “more than 60%”.

`CC#CC(C)(C)NC(=O)C(COC)Oc1ccc2ncccc2c1` (centres unmarked) [2(11), 2-(6-quinolinyloxy)-N-(2-methylpent-3-yn-2-yl)-3-methoxypropionamide]: in data set [1] (potato dextrose broth), the inhibition at 20 ppm was more than 60%. With `CCC(Oc1ccc2ncc(Br)cc2c1)C(=O)NC(C)(C)C#CCCCC#N` (centres unmarked) [90(77), 2-(3-bromo-6-quinolinyloxy)-N-(1-cyano-6-methylhept-4-yn-6-yl) butyramide], the “control of fungal infection” value in data set [3] is reported as “more than 60%”. On to `CC#CC(C)(C)NC(=O)C(CC)Oc1ccc2ncncc2c1` (centres unmarked) [2(20), 2-(6-quinazolinoxy)-N-(4-methylpent-2-yn-4-yl) butyramide], for which the “control of fungal infection” value in data set [4] was “more than 60%”.
